Laboratory results published in patent US20070248599A1 (priority 2006, published 2007).

How the values were obtained:
N2a-APPsw cells [1] = assay: Cellular Aβ production in N2a-APPsw cells (Aβ40 ELISA of conditioned medium); assay type: cell-based, mouse; settings: for Aβ production: recombinant ApoE forms at 10 μg/ml, N2a-APPsw cells (FIG. 5B)
Protocol: Quantification of β-Amyloid40, Neuro-2a cell stably overexpressing APPsw695 was used for detecting of β-Amyloid40. N2a-APPsw cells were grown in Dulbecco's Modified Eagle's medium (DMED) containing 10% fetal bovine serum, 100 U/mL penicillin, and 100 μg/mL streptomycin (GibcoBUR) with 80 μg/mL G418. Cells were cultured in 24-well plates one day before treatment. Transient transfections were done using FeGENE6 (Roche), fresh Optimum medium (Invitrogen) were supplied 5 h after transfection. Same concentration purified Apolipoprotein was added into the fresh medium. Conditioned medium was collected 24 h later. Aβ40 was quantified with sandwich ELISA by using Aβ40 ELISA Kit (Biosource). At least three times assays were done for each condition.
Cellular Aβ40 production. Neuroblastoma N2a-APPsw cells (from Dr. Riqiang Yan, Lerner Research Institute, Cleveland, Ohio) were cultured in 24-well plates in Dulbecco's Modified Eagle's medium (DMED) containing 10% fetal bovine serum, 100 U/mL penicillin, and 100 μg/mL streptomycin (GibcoBUR) with 80 μg/mL G418 one day before use. Transient transfections were done using FeGENE6 (Roche), fresh Optimum medium (Invitrogen) were supplied 5 h after transfection. Apolipoproteins were added in the fresh medium at 10 μg/mL. Conditioned medium was collected 24 h later. Aβ40 was determined in tripcates using Aβ40 ELISA Kit (Biosource). For studying the effect of PTB domain on Aβ production, N2a-APPsw cells were transfected with (0.4 μg/per well for 24 well plate) of PTB-containing vector before subjected to the above procedure.

N2a-APPsw cells [2] = assay: as above; assay type: cell-based, mouse; settings: for Aβ production: each at 5 μg/mL, 24 h, N2a-APPsw cells (FIG. 5B legend)
[3] = tested on: N2a-APPsw cells transfected with ApoER2 and β-secretase; assay: Internalization of cell surface proteins (biotinylation, Western blot); assay type: cell-based, mouse
Protocol: Internalization of cell surface proteins. N2a-APPsw cells were transiently tranfected with ApoER2 and β-secretase with Lipfectamine 2000. […] Cells were then placed on ice, rinsed in cold PBS and incubated in PBS containing 1.5 mg/mL sulfo-NHS-LC-biotin (Pierce) for 20 min at 4° C. Cells were rinsed twice in PBS and lysed in 800 μl PBS containing 0.1% SDS, 1% NP40 and a complete protease inhibitor cocktail. Total protein concentration was determined by immunoblotting from an aliquot of 50 μl cell lysate. Biotinylated proteins were recovered with NeutrAvidin agarose (50 μl; Pierce), rinsed three times, eluted in 20 μl SDS-sample buffer at boiling temperature and used for Western-blot. Quantity of bands was determined by optical scanning instruments specified above. For the determination of internalized proteins, cells were prepared as above, rinsed in PBS and then incubated with cold 1.5 mg/mL cleavable biotin reagent in PBS (EZ-Link Sulfo-NHS-SS biotin, Pierce) for 20 min at 4° C. […] Cells were then lysed in 800 μl PBS containing 0.1% SDS, 1% NP40 and a complete protease inhibitor cocktail. After centrifugation, biotinylated proteins were retrieved by incubation with NeutrAvidin agarose (50 μl; Pierce). Isolated proteins were rinsed in buffer three times and boiled in 20 μl sample buffer for Western blots.

[4] = tested on: N2a-APPsw cells transfected with ApoER2 and β-secretase; assay: as above; assay type: cell-based, mouse; settings: Western blot of conditioned medium (FIG. 6D)
[5] = molecular target: T1, human LRP (LDL receptor related protein) (human, UniProt Q07954 20-4544); assay: co-IP from HEK293 lysate, Western blot
T1 construct: whole, on cells; Expressed in HEK293 cells in place of ApoER2 and assayed in lysate
Protocol: KPI is a Kunitz protease inhibitor domain. In ApoER2, the alternative spliced 59-residue insertion is shown in blue. […] Experimental conditions same as in FIG. 7A.
Co-immunoprecipitation and Western Blot Assays. […] 36 h after transfection, cells were harvested and lysed on ice in lysis buffer (PBS, pH 7.4 with 1% NP-40 and 1% Saponin with protease inhibitors cocktail (Roche)). Cell lysates were cleared by centrifugation and immunoprecipitated with indicated antibody for 4 h at 4° C. Immune complexes were isolated using protein G-agarose beads (Sigma) and subjected to SDS-PAGE and Western blotting using specific antibodies.

[6] = 10 μg/mL, internalization 15 min at 37° C. (FIG. 6B)

T1 sequence (Q07954 20-4544): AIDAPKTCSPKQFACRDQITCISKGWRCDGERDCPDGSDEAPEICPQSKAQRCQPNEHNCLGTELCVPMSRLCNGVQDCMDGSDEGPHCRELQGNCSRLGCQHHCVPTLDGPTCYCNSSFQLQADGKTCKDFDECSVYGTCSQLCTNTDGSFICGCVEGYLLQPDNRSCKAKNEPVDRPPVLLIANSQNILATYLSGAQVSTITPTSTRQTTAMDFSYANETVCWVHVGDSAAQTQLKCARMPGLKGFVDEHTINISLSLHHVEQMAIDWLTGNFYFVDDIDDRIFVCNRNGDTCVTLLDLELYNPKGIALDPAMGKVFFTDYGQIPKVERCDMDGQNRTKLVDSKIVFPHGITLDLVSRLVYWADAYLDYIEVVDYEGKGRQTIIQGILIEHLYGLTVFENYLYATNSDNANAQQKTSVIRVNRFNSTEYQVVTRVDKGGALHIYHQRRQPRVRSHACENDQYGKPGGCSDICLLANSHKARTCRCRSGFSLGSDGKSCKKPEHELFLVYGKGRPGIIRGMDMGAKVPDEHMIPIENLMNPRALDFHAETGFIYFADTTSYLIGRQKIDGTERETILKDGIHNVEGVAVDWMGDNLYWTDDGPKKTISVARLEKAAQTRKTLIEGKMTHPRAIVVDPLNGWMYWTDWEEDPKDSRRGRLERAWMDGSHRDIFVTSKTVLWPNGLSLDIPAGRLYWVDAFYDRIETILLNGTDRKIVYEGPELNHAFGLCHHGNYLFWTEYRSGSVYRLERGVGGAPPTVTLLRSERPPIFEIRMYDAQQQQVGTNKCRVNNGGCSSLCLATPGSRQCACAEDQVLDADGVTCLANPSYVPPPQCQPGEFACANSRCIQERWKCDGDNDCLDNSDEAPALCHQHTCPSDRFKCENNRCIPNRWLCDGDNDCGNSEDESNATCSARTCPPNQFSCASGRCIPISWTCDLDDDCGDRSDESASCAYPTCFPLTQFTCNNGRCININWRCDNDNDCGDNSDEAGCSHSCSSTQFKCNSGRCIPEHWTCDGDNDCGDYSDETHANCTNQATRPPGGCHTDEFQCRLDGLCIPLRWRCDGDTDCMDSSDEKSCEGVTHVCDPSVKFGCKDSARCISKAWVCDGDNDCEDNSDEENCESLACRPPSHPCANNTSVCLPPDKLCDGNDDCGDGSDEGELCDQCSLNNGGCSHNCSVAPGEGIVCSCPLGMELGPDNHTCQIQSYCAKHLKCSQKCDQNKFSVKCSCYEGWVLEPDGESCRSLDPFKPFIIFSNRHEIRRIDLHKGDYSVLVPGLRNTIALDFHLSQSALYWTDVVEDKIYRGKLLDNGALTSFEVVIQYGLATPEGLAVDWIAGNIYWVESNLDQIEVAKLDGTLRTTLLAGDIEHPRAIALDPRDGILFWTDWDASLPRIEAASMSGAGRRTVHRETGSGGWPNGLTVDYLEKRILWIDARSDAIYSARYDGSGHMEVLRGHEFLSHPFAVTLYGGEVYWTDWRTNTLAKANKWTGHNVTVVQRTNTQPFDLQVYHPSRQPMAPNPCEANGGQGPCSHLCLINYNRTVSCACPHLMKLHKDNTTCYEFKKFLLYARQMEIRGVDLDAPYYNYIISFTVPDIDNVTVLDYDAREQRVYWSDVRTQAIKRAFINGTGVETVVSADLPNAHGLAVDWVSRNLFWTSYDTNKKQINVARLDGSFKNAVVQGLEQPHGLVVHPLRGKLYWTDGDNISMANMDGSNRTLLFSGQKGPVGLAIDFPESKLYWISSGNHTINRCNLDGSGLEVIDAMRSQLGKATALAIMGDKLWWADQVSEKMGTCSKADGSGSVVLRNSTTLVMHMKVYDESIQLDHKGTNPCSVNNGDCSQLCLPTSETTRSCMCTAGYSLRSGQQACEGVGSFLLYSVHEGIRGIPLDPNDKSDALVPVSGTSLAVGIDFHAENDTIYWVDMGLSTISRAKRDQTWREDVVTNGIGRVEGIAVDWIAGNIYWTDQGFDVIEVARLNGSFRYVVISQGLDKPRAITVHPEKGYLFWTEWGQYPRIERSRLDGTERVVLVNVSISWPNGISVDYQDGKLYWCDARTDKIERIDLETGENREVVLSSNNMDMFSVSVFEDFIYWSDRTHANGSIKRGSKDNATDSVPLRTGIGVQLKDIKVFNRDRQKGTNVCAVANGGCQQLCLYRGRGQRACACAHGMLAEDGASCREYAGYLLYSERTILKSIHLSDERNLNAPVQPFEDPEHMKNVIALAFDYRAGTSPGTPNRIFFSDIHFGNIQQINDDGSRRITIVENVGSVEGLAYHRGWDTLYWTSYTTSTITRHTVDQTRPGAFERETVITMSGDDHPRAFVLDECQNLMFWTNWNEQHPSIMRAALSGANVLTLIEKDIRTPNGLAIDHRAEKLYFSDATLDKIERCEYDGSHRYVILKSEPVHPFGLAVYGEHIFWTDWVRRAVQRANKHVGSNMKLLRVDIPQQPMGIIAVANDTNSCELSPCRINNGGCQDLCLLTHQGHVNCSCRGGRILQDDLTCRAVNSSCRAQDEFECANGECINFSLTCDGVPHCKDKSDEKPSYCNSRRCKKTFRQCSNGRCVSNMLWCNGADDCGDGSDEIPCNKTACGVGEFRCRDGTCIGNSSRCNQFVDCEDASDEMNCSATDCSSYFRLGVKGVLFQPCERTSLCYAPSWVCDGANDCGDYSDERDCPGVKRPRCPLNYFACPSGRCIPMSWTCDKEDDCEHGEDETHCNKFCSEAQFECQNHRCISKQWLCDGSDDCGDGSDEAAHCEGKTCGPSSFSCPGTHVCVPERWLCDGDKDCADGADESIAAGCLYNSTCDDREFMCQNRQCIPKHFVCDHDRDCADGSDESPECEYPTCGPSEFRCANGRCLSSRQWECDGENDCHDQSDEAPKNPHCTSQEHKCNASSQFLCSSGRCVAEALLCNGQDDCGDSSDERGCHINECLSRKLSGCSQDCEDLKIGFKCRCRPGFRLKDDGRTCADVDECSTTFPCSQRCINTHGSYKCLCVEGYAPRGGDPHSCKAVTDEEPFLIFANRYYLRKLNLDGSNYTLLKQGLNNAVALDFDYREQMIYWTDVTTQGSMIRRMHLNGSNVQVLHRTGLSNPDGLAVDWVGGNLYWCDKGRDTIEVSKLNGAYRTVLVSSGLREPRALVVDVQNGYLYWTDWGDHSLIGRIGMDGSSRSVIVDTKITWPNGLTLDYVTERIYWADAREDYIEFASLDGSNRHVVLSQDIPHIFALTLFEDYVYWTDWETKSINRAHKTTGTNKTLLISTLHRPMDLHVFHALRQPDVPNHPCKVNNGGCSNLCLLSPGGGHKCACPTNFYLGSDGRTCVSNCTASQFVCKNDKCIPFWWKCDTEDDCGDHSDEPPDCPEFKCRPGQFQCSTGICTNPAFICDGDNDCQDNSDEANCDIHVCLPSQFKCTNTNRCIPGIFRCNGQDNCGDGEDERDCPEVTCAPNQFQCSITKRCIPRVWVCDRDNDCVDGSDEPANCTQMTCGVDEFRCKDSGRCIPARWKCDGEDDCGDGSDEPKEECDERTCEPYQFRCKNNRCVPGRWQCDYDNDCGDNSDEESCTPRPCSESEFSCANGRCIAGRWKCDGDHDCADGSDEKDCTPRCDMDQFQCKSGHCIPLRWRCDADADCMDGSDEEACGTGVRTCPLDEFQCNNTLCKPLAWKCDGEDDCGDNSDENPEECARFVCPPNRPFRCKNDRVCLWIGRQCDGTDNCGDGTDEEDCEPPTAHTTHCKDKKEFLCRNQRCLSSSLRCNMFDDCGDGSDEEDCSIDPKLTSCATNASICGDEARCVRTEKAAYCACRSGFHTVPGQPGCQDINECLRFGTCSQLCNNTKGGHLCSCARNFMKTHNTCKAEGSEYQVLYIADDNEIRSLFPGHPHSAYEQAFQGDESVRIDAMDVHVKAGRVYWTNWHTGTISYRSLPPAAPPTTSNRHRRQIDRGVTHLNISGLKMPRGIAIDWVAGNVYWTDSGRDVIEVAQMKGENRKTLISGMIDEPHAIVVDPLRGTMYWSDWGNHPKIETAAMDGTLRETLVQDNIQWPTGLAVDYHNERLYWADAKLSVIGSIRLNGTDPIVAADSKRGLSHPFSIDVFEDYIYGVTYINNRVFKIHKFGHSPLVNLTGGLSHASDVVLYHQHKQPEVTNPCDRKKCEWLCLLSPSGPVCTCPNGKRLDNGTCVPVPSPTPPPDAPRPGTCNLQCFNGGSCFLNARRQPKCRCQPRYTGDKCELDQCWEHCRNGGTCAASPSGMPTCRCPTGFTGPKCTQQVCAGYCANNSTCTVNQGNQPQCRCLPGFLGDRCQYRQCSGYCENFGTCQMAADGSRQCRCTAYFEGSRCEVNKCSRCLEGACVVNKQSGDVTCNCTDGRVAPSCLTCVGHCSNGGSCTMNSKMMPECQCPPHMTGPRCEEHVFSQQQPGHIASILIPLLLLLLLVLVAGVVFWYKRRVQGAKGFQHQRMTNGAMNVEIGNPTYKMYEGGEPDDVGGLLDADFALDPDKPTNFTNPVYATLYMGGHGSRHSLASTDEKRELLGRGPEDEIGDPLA

ApoE2: recombinant ApoE isoform with cysteine at residue 158, from Alpha Diagnostic
Aβ production (N2a-APPsw cells [1]): increased Aβ production | Aβ production (N2a-APPsw cells [2]): increased Aβ production

ApoE3: recombinant ApoE isoform, the reference sequence, from Alpha Diagnostic
Aβ production (N2a-APPsw cells [1]): increased Aβ production | Aβ production (N2a-APPsw cells [2]): increased Aβ production

ApoE: purified human apolipoprotein E, purchased from Biodesign / Alpha Diagnostic
total amounts of ApoER2, APP and β-secretase in the cell lysates ([3]; 10 μg/mL, 2 h): remained about the same | decrease of remaining cell-surface β-secretase ([3]; 10 μg/mL, 2 h, compared to controls (FIG. 6A)): ~7% | increase of intracellular APP [3, 6]: about 2.5 fold | increase of intracellular ApoER2 [3, 6]: small increases | increase of intracellular β-secretase [3, 6]: small increases | intracellular APP C-terminal fragment C99 ([3]; Western blot, over the control (FIG. 6C)): significantly increased | APP ectodomain generated by ∝-secretase, s∝-APP [4]: reduction | Aβ production in cells transfected with ApoER2 versus without (N2a-APPsw cells [1]; N2a-APPsw cells (FIG. 5D)): produced more Aβ | Aβ40 increase in cells transfected with ApoER2 versus blank vectors (N2a-APPsw cells [2]; 5 μg/mL, N2a APPsw cells, p<0.05 (FIG. 4)): increase of Aβ40 at a greater extent | Aβ40 levels in medium (N2a-APPsw cells [2]; 5 μg/mL, blank vector transfected N2a APPsw cells vs control (FIG. 4)): increased over that in the control cells | Aβ production (N2a-APPsw cells [2]): increased Aβ production

B1: human X11α (other)
chain: MNHLEGSAEVEVTDEAAGGEVNESVEADLEHPEVEEEQQQPPQQQHYVGRHQRGRALEDLRAQLGQEEEERGECLARSASTESGFHNHTDTAEGDVIAAARDGYDAERAQDPEDESAYAVQYRPEAEEYTEQAEAEHAEATHRRALPNHLHFHSLEHEEAMNAAYSGYVYTHRLFHRGEDEPYSEPYADYGGLQEHVYEEIGDAPELDARDGLRLYEQERDEAAAYRQEALGARLHHYDERSDGESDSPEKEAEFAPYPRMDSYEQEEDIDQIVAEVKQSMSSQSLDKAAEDMPEAEQDLERPPTPAGGRPDSPGLQAPAGQQRAVGPAGGGEAGQRYSKEKRDAISLAIKDIKEAIEEVKTRTIRSPYTPDEPKEPIWVMRQDISPTRDCDDQRPMDGDSPSPGSSSPLGAESSSTSLHPSDPVEASTNKESRKSLASFPTYVEVPGPCDPEDLIDGIIFAANYLGSTQLLSDKTPSKNVRMMQAQEAVSRIKMAQKLAKSRKKAPEGESQPMTEVDLFISTQRIKVLNADTQETMMDHPLRTISYIADIGNIVVLMARRRMPRSNSQENVEASHPSQDGKRQYKMICHVFESEDAQLIAQSIGQAFSVAYQEFLRANGINPEDLSQKEYSDLLNTQDMYNDDLIHFSKSENCKDVFIEKQKGEILGVVIVESGWGSILPTVIIANMMHGGPAEKSGKLNIGDQIMSINGTSLVGLPLSTCQSIIKGLKNQSRVKLNIVRCPPVTTVLIRRPDLRYQLGFSVQNGIICSLMRGGIAERGGVRVGHRIIEINGQSVVATPHEKIVHILSNAVGEIHMKTMPAAMYRLLTAQEQPVYI
notes: Adaptor protein expressed from a cDNA vector in HEK293 cells and assayed in lysate; the vector came from an outside laboratory; also called X11α/β
binding result [5]: no binding

B2: PTB domain of X11α (residue 457-751) expressed from pcDNA6 (other)
chain: DGIIFAANYLGSTQLLSDKTPSKNVRMMQAQEAVSRIKMAQKLAKSRKKAPEGESQPMTEVDLFISTQRIKVLNADTQETMMDHPLRTISYIADIGNIVVLMARRRMPRSNSQENVEASHPSQDGKRQYKMICHVFESEDAQLIAQSIGQAFSVAYQEFLRANGINPEDLSQKEYSDLLNTQDMYNDDLIHFSKSENCKDVFIEKQKGEILGVVIVESGWGSILPTVIIANMMHGGPAEKSGKLNIGDQIMSINGTSLVGLPLSTCQSIIKGLKNQSRVKLNIVRCPPVTTVLIR
notes: Expressed in cells from pcDNA6; also called separately expressed PTB domain of X11α
binding result [5]: no binding
